Laboratory results: patent US6413907B2, “Herbicidal composition” (Syngenta Crop Protection, Inc., priority 1999, dated 2002)

Key:
Format in all cases: in vivo
[1] = system: Convolvulus; experiment: Pre-emergence test, greenhouse; conditions: terbutylazin 200 g/ha, after 26 days
Description: (§1) A synergistic effect is always obtained when the herbicidal action of the combination of compound I and 2.1 to 2.33 is greater than the sum of the action of the individual herbicides.
(§2) The expected herbicidal action We for a given combination of two herbicides can be calculated as follows (q.v. COLBY, S. R., “Calculating synergistic and antagonistic response of herbicide combinations”, Weeds 15, pages 20-22, 1967):
(§3) If the value actually observed is higher than the expected value We, then there is synergism.
(§4) The test plants are sown in plastic pots in standard soil under greenhouse conditions. Directly after sowing, the test substances are applied in an aqueous suspension (500 l water/ha). The test plants are then further cultivated in the greenhouse under optimum conditions. The rates of application depend on the optimum dosages determined under field conditions and greenhouse conditions. Evaluation of the tests is made after 26 days (% activity, 100% plant perished, 0%=no phytotoxic effect).

[2] = system: Ipomoea; experiment: Pre-emergence test, greenhouse; conditions: terbutylazin 200 g/ha, after 26 days
Description: as §1, §2, §3, §4

[3] = system: Xanthium; experiment: Pre-emergence test, greenhouse; conditions: terbutylazin 200 g/ha, after 26 days
Description: as §1, §2, §3, §4

[4] = system: Polygonum; experiment: Pre-emergence test, greenhouse; conditions: terbutylazin 200 g/ha, after 26 days
Description: as §1, §2, §3, §4

[5] = system: Digitaria; experiment: Postemergence test, greenhouse; conditions: halosulfuron 100 g/ha, after 20 days
Description: as §1, §2, §3
(§5) The test plants are grown under greenhouse conditions in plastic pots until reaching the 2-3 leaf stage. Standard soil is used, as the substrate for cultivation. At the 2-3 leaf stage, the herbicides are applied to the test plants on their own and in a mixture. Application is effected in the form of an aqueous suspension of the test substances in 500 1 water/ha. The rates of application depend on the optimum dosages determined under field conditions and greenhouse conditions. Evaluation of the tests is made after 20 days (% activity, 100%=plant perished, 0%=no phytotoxic effect).

[6] = system: maize Dk 261; experiment: Postemergence test, greenhouse; conditions: halosulfuron 100 g/ha, after 20 days
Description: as §1, §2, §3, §5

Row | SMILES | % activity (herbicidal action) [1] [%] | % activity (herbicidal action) [2] [%] | % activity (herbicidal action) [3] [%] | % activity (herbicidal action) [4] [%] | % activity (herbicidal action) [5] [%] | % activity (herbicidal action) [6] [%]
1 | CCNc1nc(Cl)nc(NC(C)(C)C)n1 [terbutylazin] | 80 | 30 | 0 | 60 | – | –
2 | COc1cc(OC)nc(NC(=O)NS(=O)(=O)c2c(C(=O)O)c(Cl)nn2C)n1 [halosulfuron] | – | – | – | – | 25 | 5
